“And” between values parts separate entries of the source, which are not always exact repeats. Equal values may be shown once. Read-outs that look alike come from different tables or passages of the source.
Tests used:
[1] = FRAP assay (reduction of Fe(III) to Fe(II)); assay type: biochemical; parameters: Slope of ΔA593 versus concentration: unit not given here; conditions: for Slope of ΔA593 versus concentration: 37° C.
Description: The FRAP assay was performed as previously described (Pulido, et al. J. Agric. Food Chem. 2000, 48, 3396-3402, incorporated herein by reference in its entirety). In the FRAP assay, ferric was reduced by the antioxidant to ferrous via electron transfer (Benzie et al., Anal. Biochem. 1996, 239, 70-76, incorporated herein by reference in its entirety). This assay measured the redox potential of an antioxidant which is used as an estimate of antioxidant efficiency and expressed as a FRAP value. […] The compound 1 as well as the other antioxidants was dissolved in methanol. […] Reaction kinetics of the compound 1 and other antioxidants were obtained by plotting the change in slopes at various times and are shown in FIG. 18. […] This time-dependent increase in absorbance was previously reported (Pulido, et al. J. Agric. Food Chem. 2000, 48, 3396-3402, incorporated herein by reference in its entirety) and was especially significant with polyphenolic compounds. […] However, the FRAP value increased with time, reaching 2.5 in 60 min. […] J. Agric. Food Chem. 2000, 48, 3396-3402, incorporated herein by reference in its entirety). […] EC1 values, and therefore ferric reducing ability, were lower at longer reaction times as expected from the kinetic behavior of the antioxidants (Pulido, et al. J. Agric. Food Chem. 2000, 48, 3396-3402, incorporated herein by reference in its entirety).

DPPH radical assay = conditions: for time to reach plateau / steady state with DPPH•: 50 μM syringaldehyde, 12.5 μM Trolox and ascorbic acid, methanol, room temperature, 515 nm; for IC50: read-out: DPPH IC50 at 120 min, Example 15
[2] = ABTS radical cation decolorization assay; assay type: biochemical; conditions: for IC50: final concentration in the cuvet, read-out: concentration at which 50% inhibition of ABTS•+ was observed; for Slope of % decrease in absorbance at 6 min versus antioxidant concentration: linear regression, concentration in μM; for TEAC: slope divided by that of Trolox, % decrease in A734 at 6 min, ethanol
From the text: We have tested AO activity of G1 (13) using ABTS as a radical source using a previously reported spectroscopic assay. The AO activity of the G1 (13) was compared to those of syringaldehyde, gallic acid, and vitamin C. If the phenolic OH group is the radical scavenging site, the expected AO activity of the G1 (13) should be 4 fold higher than that of syringaldehyde and 1.3 fold higher than that of gallic acid (which has three phenolic OH groups).
ABTS radical cation decolorization assay was used as previously described (Ozgen, et al. J. Agric. Food Chem. 2006, 54, 1151-1157, incorporated herein by reference in its entirety). Like the DPPH assay, this was also a decolorization assay and measured absorbance decrease at 734 nm as the ABTS radical (ABTS•+) is quenched by the antioxidant. The solvent used for the assay was ethanol. ABTS reagent was added to 1.0 mL solvent in a cuvet to bring the absorbance to 0.7. A 10 μL sample of antioxidant was then added, mixed, and the absorbance monitored at 734 nm for 6 min. Antioxidant concentrations were 14.4 μM Trolox, 11.4 μM ascorbic acid, 15.4 μM syringaldehyde, and 3 μM compound 1. The % decrease in absorbance at 6 min was plotted against antioxidant concentrations. The gradient of the line obtained by linear regression for a given antioxidant was divided by that obtained for Trolox to yield Trolox equivalent antioxidant (TEAC) values. All samples were made in ethanol and run in triplicates and at room temperature.

Row | Structure (SMILES) | Antioxidant Capacity Relative to Trolox, FRAP 5 min ([1]; 5 min) | EC1 (concentration with ferric-TPTZ reducing ability equivalent to 1 mM FeSO4.7H2O) ([1]; 5 min) | FRAP value relative to Fe(II) ([1]; 5 min) | FRAP value relative to Fe(II) ([1]; 15 min) | FRAP value relative to Fe(II) ([1]; 30 min) | Antioxidant Capacity Relative to Trolox, FRAP 60 min ([1]; 60 min) | EC1 (concentration with ferric-TPTZ reducing ability equivalent to 1 mM FeSO4.7H2O) ([1]; 60 min) | FRAP value relative to Fe(II) ([1]; 60 min) | Slope of ΔA593 versus concentration ([1]; Reaction time 5 min) | Slope of ΔA593 versus concentration ([1]; Reaction time 15 min) | Slope of ΔA593 versus concentration ([1]; Reaction time 30 min) | Slope of ΔA593 versus concentration ([1]; Reaction time 60 min) | # of DDPH• reduced per antioxidant molecule (1/stoichiometry) (DPPH radical assay) | Antioxidant Capacity Relative to Trolox, DPPH (DPPH radical assay) | time to reach plateau / steady state with DPPH• (DPPH radical assay; 5 μM compound 1) | IC50 (DPPH radical assay) | Antioxidant Capacity Relative to Trolox, ABTS [2] | IC50 [2] | Slope of % decrease in absorbance at 6 min versus antioxidant concentration [2] | TEAC [2] | also measured
1 | COc1cc(CN(Cc2ccc(CN(Cc3cc(OC)c(O)c(OC)c3)Cc3cc(OC)c(O)c(OC)c3)cc2)Cc2cc(OC)c(O)c(OC)c2)cc(OC)c1O [Compound 1] | 6.1 | 74 µM | 13.5 | 14.6 | 15.1 | 7.2 | 63 µM | 15.8 | 0.163 | 0.175 | 0.182 | 0.190 | 8.8 | 4.9 | approximately 45 min | 4 µM | 8.5 | ~1.5 µM | 33.9 | 8.48 | FRAP, times better than ascorbic acid ([1]; 5 min): 6.7 times; Antioxidant Capacity Relative to Trolox, FRAP 5 min ([1]; 5 min, listed as compound 1): ~6 and 6.1; FRAP ratio to syringaldehyde ([1]; 5 min, listed as compound 1): ~2.6 times and 2.7 times; FRAP ratio to syringaldehyde ([1]; 60 min): 1.7 times; FRAP, times better than ascorbic acid ([1]; 60 min): 6.5 times; Antioxidant Capacity Relative to Trolox, FRAP 60 min ([1]; 60 min, listed as compound 1): ~7 and 7.2; DPPH• remaining at plateau (DPPH radical assay; 5 μM compound 1): 46%; DPPH• remaining in two minutes (DPPH radical assay; 5 μM compound 1): 60%; decrease in DDPH• (DPPH radical assay; 5 μM solution): 60%; Antioxidant Capacity Relative to Trolox, DPPH (DPPH radical assay; listed as compound 1): ~5 and 4.9; DPPH antioxidant capacity, times better than ascorbic acid (DPPH radical assay; listed as compound 1): ~5 times and 4.9 times; AO activity higher than that of gallic acid ([2]; ABTS as radical source): 3 fold; AO activity higher than that of syringaldehyde ([2]; ABTS as radical source): 7 fold; AO activity higher than that of vitamin C ([2]; ABTS as radical source): 7.6 fold; ABTS, times better than ascorbic acid ([2]; based on TEAC): 9.4 times; ABTS, times better than syringaldehyde ([2]; based on TEAC): 8.7 times
2 | Cc1c(C)c2c(c(C)c1O)CCC(C)(C(=O)O)O2 (stereo not shown) [Trolox, 6-hydroxy-2,5,7,8-tetramethylchroman-2-carboxylic acid] | 1 | 450 µM | 2.2 | 2.2 | 2.2 | 1 | 449 µM | 2.2 | 0.0268 | 0.0269 | 0.0269 | 0.0269 | 1.8 | 1 | ≤ 2 min | 30 µM | 1 | ~10 µM | 4 | 1 | FRAP value, did not change with time ([1]; testing period 60 min): 2.2; time to reach a plateau of ABTS•+ absorbance suppression ([2]; 14.4 μM Trolox, 11.4 μM ascorbic acid): one
